Drawing on US9255110B2 (Hoffmann-La Roche Inc., priority 2010, dated 2016), this text covers IC50 for 15 molecules.

Structures are written as SMILES.

The target in this assay is IRAK-4 (Homo sapiens (Human), UniProt Q9NWZ3). The assay is described as follows: In vitro IRAK-4 kinase assay. It counts as biochemical. To be noted: purified recombinant IRAK-4, 50 uM ATP, 33P peptide phosphorylation. The procedure: Purified recombinant IRAK-4 protein was incubated with 250 uM synthetic peptide ([…]) in 30 ul of kinase buffer including (20 mM MOPS pH7.2, 25 mM beta glycerol phosphate, 5 mM EGTA, 1 mM sodium orthovanadate, 1 mM DTT, 50 uM ATP, 20 mM MgCl2, 10 uCi γ-^33P, 0.1% BSA) for the indicated time. For purified recombinant IRAK-1 protein kinase assay, 50 uM ATP was used. A 25 ul aliquot of the reaction mixture was transferred on to p81 phosphocellulose squares (Upstate Biotechnology, Lake Placid, N.Y.). The assay squares were washed three times with 0.75% phosphoric acid and once with acetone. Enzyme activity was measured by determining the bound radioactivity by liquid scintillation counting.
IRAK-4, sequence (Q9NWZ3 whole entry, species assumed): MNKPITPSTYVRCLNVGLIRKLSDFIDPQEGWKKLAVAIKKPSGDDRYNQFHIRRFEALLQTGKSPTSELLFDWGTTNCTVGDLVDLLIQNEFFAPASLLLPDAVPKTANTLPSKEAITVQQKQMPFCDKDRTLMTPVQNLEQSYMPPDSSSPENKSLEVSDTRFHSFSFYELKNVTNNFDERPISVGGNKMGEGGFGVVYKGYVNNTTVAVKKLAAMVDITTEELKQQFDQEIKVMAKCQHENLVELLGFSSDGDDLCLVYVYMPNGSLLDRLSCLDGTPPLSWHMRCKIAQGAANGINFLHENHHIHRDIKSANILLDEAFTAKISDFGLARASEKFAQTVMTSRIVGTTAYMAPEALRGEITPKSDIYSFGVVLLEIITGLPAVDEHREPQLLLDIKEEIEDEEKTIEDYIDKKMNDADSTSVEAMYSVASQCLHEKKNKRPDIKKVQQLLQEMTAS

The IC50 is the midpoint of a concentration-inhibition curve.

On to `CC(C)(CCO)Oc1ccc(Cl)cc1NC(=O)c1csc2cncnc12` [Example 117, Thieno[3,2-d]pyrimidine-7-carboxylic acid [5-chloro-2-(3-hydroxy-1,1-dimethyl-propoxy)-phenyl]-amide], for which the IC50 is 1460 nM.
Turning to `O=C(Nc1nc2ccccc2n1CCCO)c1csc2cncnc12` [Example 136, Thieno[3,2-d]pyrimidine-7-carboxylic acid [1-(3-hydroxy-propyl)-1H-benzoimidazol-2-yl]-amide], the IC50 came out at 2310 nM.
As for `CN1CCN(c2ccc(Cl)cc2NC(=O)c2cnn3cccnc23)CC1` [Example 97, Pyrazolo[1,5-alpha]pyrimidine-3-carboxylic acid [5-chloro-2-(4-methyl-piperazin-1-yl)-phenyl]-amide], the IC50 stood at 512 nM.
Take `Cc1ncoc1COc1ccc(Cl)cc1NC(=O)c1csc2cncnc12` [Example 115, Thieno[3,2-d]pyrimidine-7-carboxylic acid [5-chloro-2-(4-methyl-oxazol-5-ylmethoxy)-phenyl]-amide]: the IC50 came to 1050 nM.
Then `O=C(Nc1cc(Cl)ccc1N1CCC(O)CC1)c1cnn2cccnc12` [Example 60, Pyrazolo[1,5-alpha]pyrimidine-3-carboxylic acid [5-chloro-2-(4-hydroxy-piperidin-1-yl)-phenyl]-amide], with 136 nM.
Then `COc1cc2cc[nH]c2cc1NC(=O)c1cnn2cccnc12` [Example 110, Pyrazolo[1,5-alpha]pyrimidine-3-carboxylic acid (5-methoxy-1H-indol-6-yl)-amide], with 787 nM; and `Cc1ncoc1COc1ccc(Cl)cc1NC(=O)c1cnn2cccnc12` [Example 121, Pyrazolo[1,5-alpha]pyrimidine-3-carboxylic acid [5-chloro-2-(4-methyl-oxazol-5-ylmethoxy)-phenyl]-amide], with 1550 nM.
Consider `O=C(Nc1cc(Cl)ccc1OCc1cnco1)c1cnn2cccnc12` [Example 98, Pyrazolo[1,5-alpha]pyrimidine-3-carboxylic acid [5-chloro-2-(oxazol-5-ylmethoxy)-phenyl]-amide], for which the IC50 was determined as 516 nM.
Regarding `O=C(Nc1cc(Cl)ccc1OC1CCC(O)CC1)c1cnn2cc(CCCO)cnc12` (stereo not drawn) [Example 178, 6-(3-Hydroxy-propyl)-pyrazolo[1,5-alpha]pyrimidine-3-carboxylic acid [5-chloro-2-(4-hydroxy-cyclohexyloxy)-phenyl]-amide], the IC50 turned out to be 9420 nM.
Take `COc1ccc(CCCO)cc1NC(=O)c1cnn2cccnc12` [Example 176, Pyrazolo[1,5-alpha]pyrimidine-3-carboxylic acid [5-(3-hydroxy-propyl)-2-methoxy-phenyl]-amide]: the IC50 is 8360 nM.
Turning to `O=C(Nc1cc(CO)ccc1N1CCCCC1)c1cnn2cccnc12` [Example 66, Pyrazolo[1,5-alpha]pyrimidine-3-carboxylic acid (5-hydroxymethyl-2-piperidin-1-yl-phenyl)-amide], the IC50 came out at 199 nM.
For the molecule `COc1ccc(/C=C/CO)cc1NC(=O)c1cnn2cccnc12` [Example 152, Pyrazolo[1,5-alpha]pyrimidine-3-carboxylic acid [5-(3-hydroxy-propenyl)-2-methoxy-phenyl]-amide], the IC50 is 3700 nM.
As to `O=C(Nc1cc(Cl)ccc1N1CCCC1)c1cnn2cccnc12` [Example 78, Pyrazolo[1,5-alpha]pyrimidine-3-carboxylic acid (5-chloro-2-pyrrolidin-1-yl-phenyl)-amide], the IC50 is 312 nM.
With `O=C(Nc1cc(Cl)ccc1N1CCCCCC1)c1cnn2cccnc12` [Example 119, Pyrazolo[1,5-alpha]pyrimidine-3-carboxylic acid (2-azepan 1-yl-5-chloro-phenyl)-amide], the IC50 amounted to 1500 nM.
As to `O=C(Nc1cc2ccccc2cc1OC1CCC(O)C1)c1cnn2cccnc12` (stereo not drawn) [Example 65, Pyrazolo[1,5-alpha]pyrimidine-3-carboxylic acid [3-(3-hydroxy-cyclopentyloxy)-naphthalen-2-yl]-amide], the IC50 amounted to 177 nM.
